Test results published in article PMC8069501, “Identification of Vinyl Sulfone Derivatives as EGFR Tyrosine Kinase Inhibitor: In Vitro and In Silico Studies” (Molecules, 2021).

Columns and labels:
Assay type in all cases: biochemical
[1] = target: T1, HER2 (Homo sapiens, UniProt P04626); experiment: kinase inhibition assay (ADP-Glo)
T1 construct: gene ERBB2

[2] = target: T2, EGFR-TK (epidermal growth factor receptor tyrosine kinase) (Homo sapiens, UniProt P00533); experiment: ADP-Glo kinase assay
T2 construct: tyrosine kinase (TK) domain
T2 sequence (P00533 712-979 limits assumed): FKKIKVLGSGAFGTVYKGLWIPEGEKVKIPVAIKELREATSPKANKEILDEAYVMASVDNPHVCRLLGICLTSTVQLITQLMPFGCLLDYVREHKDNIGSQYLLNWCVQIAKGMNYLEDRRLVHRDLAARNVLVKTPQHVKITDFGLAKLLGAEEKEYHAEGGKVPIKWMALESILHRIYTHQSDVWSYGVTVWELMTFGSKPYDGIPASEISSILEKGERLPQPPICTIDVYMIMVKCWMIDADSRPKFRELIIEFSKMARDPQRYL

[3] = target: T3, JAK3 (Homo sapiens, UniProt P52333); experiment: kinase inhibition assay (ADP-Glo)
T3 sequence (P52333 1-1124): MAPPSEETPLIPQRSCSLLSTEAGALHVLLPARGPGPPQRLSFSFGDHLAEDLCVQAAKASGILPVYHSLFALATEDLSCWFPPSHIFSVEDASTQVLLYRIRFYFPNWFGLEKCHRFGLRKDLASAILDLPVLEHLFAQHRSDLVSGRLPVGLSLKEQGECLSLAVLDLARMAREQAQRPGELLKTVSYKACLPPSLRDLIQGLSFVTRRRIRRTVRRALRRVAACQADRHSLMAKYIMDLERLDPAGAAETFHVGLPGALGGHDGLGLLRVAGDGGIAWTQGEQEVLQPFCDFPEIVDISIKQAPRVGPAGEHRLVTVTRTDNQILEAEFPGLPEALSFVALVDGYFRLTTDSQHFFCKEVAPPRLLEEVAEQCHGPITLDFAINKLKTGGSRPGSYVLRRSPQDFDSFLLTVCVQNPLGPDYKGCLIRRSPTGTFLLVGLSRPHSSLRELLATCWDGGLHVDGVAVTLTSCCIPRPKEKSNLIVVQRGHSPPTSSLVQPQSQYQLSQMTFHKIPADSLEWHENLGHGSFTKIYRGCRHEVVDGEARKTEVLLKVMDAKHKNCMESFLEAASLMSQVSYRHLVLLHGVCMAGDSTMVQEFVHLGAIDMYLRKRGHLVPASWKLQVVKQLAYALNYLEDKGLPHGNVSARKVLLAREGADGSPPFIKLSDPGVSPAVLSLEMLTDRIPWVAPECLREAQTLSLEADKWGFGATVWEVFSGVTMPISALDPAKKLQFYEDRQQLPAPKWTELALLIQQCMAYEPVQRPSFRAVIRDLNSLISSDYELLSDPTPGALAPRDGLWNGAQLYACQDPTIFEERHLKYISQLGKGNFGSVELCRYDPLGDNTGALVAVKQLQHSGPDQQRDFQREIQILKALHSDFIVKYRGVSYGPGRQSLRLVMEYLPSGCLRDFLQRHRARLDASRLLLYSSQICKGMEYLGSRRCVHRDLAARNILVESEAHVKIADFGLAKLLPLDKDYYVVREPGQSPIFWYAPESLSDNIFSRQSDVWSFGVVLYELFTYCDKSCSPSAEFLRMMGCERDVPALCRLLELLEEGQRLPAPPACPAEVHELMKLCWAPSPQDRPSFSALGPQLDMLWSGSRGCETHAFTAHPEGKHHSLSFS

T1 sequence (P04626 23-1255): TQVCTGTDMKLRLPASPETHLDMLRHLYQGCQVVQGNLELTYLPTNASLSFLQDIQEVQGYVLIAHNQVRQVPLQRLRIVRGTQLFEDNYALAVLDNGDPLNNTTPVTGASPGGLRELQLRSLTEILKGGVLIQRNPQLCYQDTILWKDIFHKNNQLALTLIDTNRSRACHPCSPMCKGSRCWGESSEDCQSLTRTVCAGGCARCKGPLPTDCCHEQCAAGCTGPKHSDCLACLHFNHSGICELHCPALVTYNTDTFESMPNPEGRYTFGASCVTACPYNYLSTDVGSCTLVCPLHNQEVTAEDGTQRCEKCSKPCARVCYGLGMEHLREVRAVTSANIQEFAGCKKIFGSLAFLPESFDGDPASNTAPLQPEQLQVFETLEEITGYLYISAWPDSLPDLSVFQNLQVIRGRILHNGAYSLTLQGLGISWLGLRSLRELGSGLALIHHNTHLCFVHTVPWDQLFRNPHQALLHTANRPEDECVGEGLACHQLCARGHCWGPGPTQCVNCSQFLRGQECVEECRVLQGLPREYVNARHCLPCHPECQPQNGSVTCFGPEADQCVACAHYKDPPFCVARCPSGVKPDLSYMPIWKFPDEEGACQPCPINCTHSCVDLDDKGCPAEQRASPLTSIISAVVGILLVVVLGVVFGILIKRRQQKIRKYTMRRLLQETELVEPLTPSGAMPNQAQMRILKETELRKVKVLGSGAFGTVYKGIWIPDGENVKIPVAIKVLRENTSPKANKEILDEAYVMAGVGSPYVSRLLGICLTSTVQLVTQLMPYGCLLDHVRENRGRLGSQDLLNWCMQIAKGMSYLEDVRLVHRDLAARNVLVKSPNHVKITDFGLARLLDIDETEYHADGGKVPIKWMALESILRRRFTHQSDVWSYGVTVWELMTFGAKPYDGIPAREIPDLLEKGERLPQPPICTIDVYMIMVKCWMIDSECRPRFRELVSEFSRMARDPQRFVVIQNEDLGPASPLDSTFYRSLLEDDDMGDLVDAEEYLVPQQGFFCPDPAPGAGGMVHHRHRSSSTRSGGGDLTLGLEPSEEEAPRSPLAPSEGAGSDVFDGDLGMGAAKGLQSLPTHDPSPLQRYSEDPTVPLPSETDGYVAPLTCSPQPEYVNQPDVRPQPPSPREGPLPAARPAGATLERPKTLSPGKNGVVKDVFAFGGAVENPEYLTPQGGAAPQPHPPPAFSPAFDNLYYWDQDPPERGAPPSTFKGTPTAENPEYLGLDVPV

COc1cc(/C=C/S(=O)(=O)c2ccccc2)cc(OC)c1OC [VF16]
IC50 [1]: 312 ± 0.28 nM | IC50 [2]: 7.85 ± 0.88 nM | IC50 [3]: 158 ± 4.75 nM
